# Measured values reported in patent publication US20070191324A1, “Methods for treatment or prophylaxis of aldosterone-mediated pathogenic effects in a subject using an epoxy-steroidal aldosterone antagonist” (priority 1999, published 2007).
# Legend:
# [1] = system: patients with mild to moderate hypertension; assay: Eplerenone/HCTZ dose ranging factorial design study (Example D-2); type: in vivo, human
# Protocol: Patients were assessed at weeks 0, 2, 4, and 8. Study assessments at protocol-specified timepoints included blood pressure (BP), heart rate, clinical laboratory analyses, vital signs, physical examinations, 12-lead ECG, and monitoring of adverse events. A total of 614 patients were randomized.
# [2] = system: patients with low-renin hypertension; assay: Eplerenone versus losartan in low-renin hypertension, 16 weeks (Examples A-16, D-5); type: in vivo, human
# Text: Patients will continue on therapy until Week 16. Table […] illustrates the above-described dosing scheme. […] Plasma renin will be determined at screening; serum aldosterone, plasma renin, and plasma cortisol will be determined at Weeks 0, 8, and 16. […] A 12-lead electrocardiogram will be done at Weeks 0 and 16. Physical examinations will be completed at screening and at Week 16. […] Secondary measures of efficacy will be the following: […] Study design is illustrated in FIG. D-16. […] At Weeks 8 and 16, BP, RAAS hormone profile, and safety were assessed.
# [3] = system: patients with hypertension; assay: Dose-ranging study of eplerenone vs placebo and spironolactone in hypertension (Examples A-14, D-1); type: in vivo, human
# Protocol: A multicenter, randomized, double-blind, parallel group study was conducted in patients with hypertension. […] The study consisted of a two-week pretreatment period for completion of screening procedures and discontinuation of any current antihypertensive medication(s). The screening period was followed by a four-week single-blind placebo lead-in treatment period. Randomization was followed by an eight-week double-blind active or placebo treatment period. The primary efficacy measure was the change from baseline in cuff diastolic blood pressure measured at trough as compared to placebo. Secondary efficacy measures included changes in cuff assessed trough systolic blood pressure and changes in average 24-hour diastolic and systolic blood pressure assessed by ambulatory blood pressure monitoring. Safety was assessed by conducting routine clinical lab tests, physical exams, ECGs, and monitoring for adverse events. […] The adjusted mean change in blood pressure (mm Hg) from baseline to final visit is described in Table […].
# [4] = system: saline-loaded adrenalectomized rats treated with aldosterone; assay: Antimineralocorticoid activity in saline-loaded adrenalectomized rats treated with aldosterone (Example A-2); type: in vivo
# Protocol: Methods: The antimineralocorticoid pharmacological activity was determined in saline-loaded adrenalectomized rats treated with aldosterone. […] Urinary sodium, potassium and water excretion were measured.
# [5] = Pharmacokinetics in moderate hepatic impairment vs matched normal subjects (Example A-13); details: for AUC / Cmax / AUC(0-inf) / half-life / Tmax: human, plasma, 400 mg; for AUC(0-inf): Single Dose AUC(0-∞), linear kinetics assessment; for half-life: T1/2, Mean;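 on all read-outs here: impaired subjects were Child-Pugh Class B with ascites, compared against healthy volunteers matched for sex, age, weight and smoking, blood sampled before and after dosing on Days 1 and 7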
# human subject = assay: Blood pressure, plasma renin activity and serum aldosterone as a function of eplerenone dose (FIG. 10-12); type: in vivo; details: increasing doses
# Text: For example, appropriate dosing can be determined by monitoring systolic blood pressure. […] Accordingly, subjects can be treated with doses of one or more epoxy-steroidal compounds according to the present invention by increasing doses of such compounds in a step-wise manner until a minimal levels of systolic blood pressure decrease are achieved while, at the same time, also maintaining serum levels of potassium within the normal range. Similarly, appropriate dosing can also be determined by monitoring diastolic blood pressure. […] Accordingly, subjects can be treated with doses of one or more epoxy-steroidal compounds according to the present invention by increasing doses of such compounds in a step-wise manner until a minimal level of diastolic blood pressure change are achieved while, at the same time, also maintaining serum levels of potassium within the normal range. Appropriate dosing can also be determined by monitoring plasma renin activity. […] Accordingly, subjects can be treated with doses of one or more epoxy-steroidal compounds according to the present invention by increasing doses of such compounds in a step-wise manner until the desired level of plasma renin activity is achieved while, at the same time, maintaining serum levels of potassium within the normal range. Appropriate dosing can also be determined by monitoring serum aldosterone levels. […] Accordingly, subjects can be treated with doses of one or more epoxy-steroidal compounds according to the present invention by increasing doses of such compounds in a step-wise manner until the desired level of serum aldosterone is achieved while, at the same time, also maintaining serum levels of potassium within the normal range.
# [6] = system: aldosterone/salt uninephrectomized rats; assay: Myocardial injury in aldosterone/salt uninephrectomized rats (Example A-6); type: in vivo, Sprague Dawley rats; details: eplerenone in chow 100 mg/k/d; aldosterone 0.75 ug/hr, 1% NaCl
# Protocol: The rats were then implanted with Alzet mini pump that subcutaneously delivered either aldosterone (0.75 ug/hr) or vehicle. […] Blood pressure was measured by radio telemetry units implanted in abdominal aorta. Rats were sacrificed for examination of the hearts.
# [7] = eplerenone 25, 50 or 200 mg daily, HCTZ 12.5 or 25 mg daily, 8 weeks
# [8] = Week 8 (monotherapy), EPL 100-200 mg QD, LOS 50-100 mg QD
# [9] = Week 16, after allowed addition of HCTZ
# [10] = Mean, Multiple Dose 400 mg QD, Normal
# [11] = Mean, Single Dose 400 mg, Normal
# [12] = Mean, Multiple Dose 400 mg QD, Moderate
# [13] = Mean, Single Dose 400 mg, Moderate
# [14] = least squares mean, Multiple Dose 400 mg QD, Moderate Impairment
# [15] = least squares mean, Single Dose 400 mg, Moderate Impairment
structure (smiles),measurement,setting,value
"COC(=O)[C@@H]1CC2=CC(=O)CC[C@]2(C)[C@@]23O[C@@H]2C[C@@]2(C)[C@@H](CC[C@@]24CCC(=O)O4)[C@H]13 [Eplerenone, Pregn-4-ene-7,21-dicarboxylic acid, 9,11-epoxy-17-hydroxy-3-oxo-, γ-lactone, methyl ester, (7α, 11α, 17β)-]",gynecomastia,[1]; eight weeks,Gynecomastia was not observed
same,safety and tolerability,"[1]; eight weeks, monotherapy or in combination with HCTZ",safe and well tolerated
same,"DBP, change from Baseline to the Final Visit",[1]; [7],dose-dependent decreases in DBP
same,"SBP, change from Baseline to the Final Visit",[1]; [7],dose-dependent decreases in SBP
same,cumulative percentage of patients requiring HCTZ add-on therapy,[2]; 16 weeks,32.5%
same,increase in active renin levels,[2]; Week 8,+50.1%
same,increase in serum aldosterone levels,[2]; Week 8,+74.7%
same,mean change from baseline in DBP,[2]; [8],−9.3 mmHg
same,mean change from baseline in SBP,[2]; [8],−15.8 mmHg
same,increase in active renin levels,[2]; Week 16,+73.0%
same,increase in serum aldosterone levels,[2]; Week 16,+89.8%
same,mean change from baseline in DBP,[2]; [9],−10.8 mmHg
same,mean change from baseline in SBP,[2]; [9],−18.3 mmHg
same,safety and tolerability,[2]; in vivo,safe and well tolerated
same,gynecomastia,"[3]; 50-400 mg daily, 8 weeks",no reports of gynecomastia
same,safety and tolerability,"[3]; 50-400 mg daily, QD or divided doses",safe and well tolerated
same,DBP and SBP vs. placebo,"[3]; wide range of doses, regardless of assessment method (FIG. D-1, D-2)",significant reductions
same,Urinary Na/K ± SEM,[4]; aldosterone & antagonist 1 mg/kg by gavage,2.53 ± 0.23
same,Urinary Na/K ± SEM,[4]; aldosterone & antagonist 3 mg/kg by gavage,4.08 ± 0.26
same,Urinary Na/K ± SEM,[4]; aldosterone & antagonist 10 mg/kg by gavage,4.11 ± 0.27
same,time to steady-state concentrations,"[5]; 400 mg QD dosing, both subject groups",by the fourth day
same,mean AUC higher in moderate impairment than matched normal subjects,[5]; following single dosing,41-50%
same,AUC,"[5]; Mean, Multiple Dose 400 mg QD, Moderate hepatic impairment",48800 ng·h/mL
same,AUC,[5]; [10],33800 ng·h/mL
same,AUC,"[5]; Mean, Single Dose 400 mg, Moderate hepatic impairment",51400 ng·h/mL
same,AUC,[5]; [11],31000 ng·h/mL
same,Cmax,[5]; [12],4170 ng/mL
same,Cmax,[5]; [10],3880 ng/mL
same,Cmax,[5]; [13],3790 ng/mL
same,Cmax,[5]; [11],3840 ng/mL
same,Cmax,[5]; [14],3810 ng/mL
same,Cmax,"[5]; least squares mean, Multiple Dose 400 mg QD, Normal",3670 ng/mL
same,Cmax,[5]; [15],3410 ng/mL
same,Cmax,"[5]; least squares mean, Single Dose 400 mg, Normal",3810 ng/mL
same,AUC(0-inf),[5]; Moderate Hepatic Impairment,49800 ng·h/mL
same,AUC(0-inf),[5]; Normal,28700 ng·h/mL
same,half-life,"[5]; Multiple Dose 400 mg QD, Moderate",8.07 h
same,half-life,"[5]; Multiple Dose 400 mg QD, Normal",7.61 h
same,half-life,"[5]; Single Dose 400 mg, Moderate",6.78 h
same,half-life,"[5]; Single Dose 400 mg, Normal",6.31 h
same,Tmax,[5]; [12],2.81 h
same,Tmax,[5]; [13],2.56 h
same,Tmax,[5]; [11],2.03 h
same,Tmax,[5]; [14],2.9 h
same,Tmax,[5]; [15],2.7 h
same,systolic blood pressure as a function of dose,human subject; FIG. 10,decreased systolic blood pressure
same,diastolic blood pressure as a function of dose,human subject; FIG. 11,decreased diastolic blood pressure
same,plasma renin activity as a function of dose,human subject; FIG. 12,increased levels of plasma renin activity
same,serum aldosterone as a function of dose,human subject; FIG. 12,increased levels of serum aldosterone
same,cardiac histopathologic damage,[6],prevents the histopathologic damage
